Broadly, the IC50 is the concentration needed to halve the response being measured.

Read-outs that look alike come from different tables or passages of the source.

One assay has as its target VEGFR2 tyrosine kinase (Homo sapiens (Human), UniProt P35968). Put plainly: Assay of small molecular compounds for inhibiting the activity of VEGFR-2 kinase (LANCE TR-FRET). A general note: TR-FRET usually uses a lanthanide donor and a delayed reading to cut background.
The next assay has as its target RET tyrosine kinase (Homo sapiens (Human), UniProt P07949). Put plainly: Assay of small molecular compounds for inhibiting the activity of RET kinase (LANCE TR-FRET).

Sequence of RET tyrosine kinase (P07949 29-1114): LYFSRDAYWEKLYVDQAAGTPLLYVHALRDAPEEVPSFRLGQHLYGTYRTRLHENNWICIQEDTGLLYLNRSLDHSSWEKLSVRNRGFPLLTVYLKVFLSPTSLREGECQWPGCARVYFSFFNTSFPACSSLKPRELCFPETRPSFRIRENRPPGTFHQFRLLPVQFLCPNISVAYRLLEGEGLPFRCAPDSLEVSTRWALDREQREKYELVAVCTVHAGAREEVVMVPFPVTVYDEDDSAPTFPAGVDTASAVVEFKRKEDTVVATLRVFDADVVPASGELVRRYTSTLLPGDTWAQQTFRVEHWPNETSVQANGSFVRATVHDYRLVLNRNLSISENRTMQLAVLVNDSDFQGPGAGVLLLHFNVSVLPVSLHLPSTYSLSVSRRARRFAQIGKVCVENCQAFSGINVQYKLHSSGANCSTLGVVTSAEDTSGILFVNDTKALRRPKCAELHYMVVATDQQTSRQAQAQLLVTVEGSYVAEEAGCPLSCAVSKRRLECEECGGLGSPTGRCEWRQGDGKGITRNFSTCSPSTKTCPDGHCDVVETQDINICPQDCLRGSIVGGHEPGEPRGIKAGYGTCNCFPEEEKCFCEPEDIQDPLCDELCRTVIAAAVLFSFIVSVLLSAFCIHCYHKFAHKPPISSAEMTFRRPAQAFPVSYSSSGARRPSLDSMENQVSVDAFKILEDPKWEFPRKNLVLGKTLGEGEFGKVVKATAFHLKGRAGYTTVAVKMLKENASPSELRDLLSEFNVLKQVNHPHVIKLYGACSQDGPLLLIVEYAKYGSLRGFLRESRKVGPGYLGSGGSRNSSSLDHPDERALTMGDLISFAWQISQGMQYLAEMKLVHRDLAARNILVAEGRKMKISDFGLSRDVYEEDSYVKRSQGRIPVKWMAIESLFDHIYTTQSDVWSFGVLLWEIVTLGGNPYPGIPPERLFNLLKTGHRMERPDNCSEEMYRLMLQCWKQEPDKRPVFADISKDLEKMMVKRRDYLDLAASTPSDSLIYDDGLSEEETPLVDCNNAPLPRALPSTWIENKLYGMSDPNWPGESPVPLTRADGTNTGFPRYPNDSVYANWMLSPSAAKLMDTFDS
Sequence of VEGFR2 tyrosine kinase (P35968 20-1356): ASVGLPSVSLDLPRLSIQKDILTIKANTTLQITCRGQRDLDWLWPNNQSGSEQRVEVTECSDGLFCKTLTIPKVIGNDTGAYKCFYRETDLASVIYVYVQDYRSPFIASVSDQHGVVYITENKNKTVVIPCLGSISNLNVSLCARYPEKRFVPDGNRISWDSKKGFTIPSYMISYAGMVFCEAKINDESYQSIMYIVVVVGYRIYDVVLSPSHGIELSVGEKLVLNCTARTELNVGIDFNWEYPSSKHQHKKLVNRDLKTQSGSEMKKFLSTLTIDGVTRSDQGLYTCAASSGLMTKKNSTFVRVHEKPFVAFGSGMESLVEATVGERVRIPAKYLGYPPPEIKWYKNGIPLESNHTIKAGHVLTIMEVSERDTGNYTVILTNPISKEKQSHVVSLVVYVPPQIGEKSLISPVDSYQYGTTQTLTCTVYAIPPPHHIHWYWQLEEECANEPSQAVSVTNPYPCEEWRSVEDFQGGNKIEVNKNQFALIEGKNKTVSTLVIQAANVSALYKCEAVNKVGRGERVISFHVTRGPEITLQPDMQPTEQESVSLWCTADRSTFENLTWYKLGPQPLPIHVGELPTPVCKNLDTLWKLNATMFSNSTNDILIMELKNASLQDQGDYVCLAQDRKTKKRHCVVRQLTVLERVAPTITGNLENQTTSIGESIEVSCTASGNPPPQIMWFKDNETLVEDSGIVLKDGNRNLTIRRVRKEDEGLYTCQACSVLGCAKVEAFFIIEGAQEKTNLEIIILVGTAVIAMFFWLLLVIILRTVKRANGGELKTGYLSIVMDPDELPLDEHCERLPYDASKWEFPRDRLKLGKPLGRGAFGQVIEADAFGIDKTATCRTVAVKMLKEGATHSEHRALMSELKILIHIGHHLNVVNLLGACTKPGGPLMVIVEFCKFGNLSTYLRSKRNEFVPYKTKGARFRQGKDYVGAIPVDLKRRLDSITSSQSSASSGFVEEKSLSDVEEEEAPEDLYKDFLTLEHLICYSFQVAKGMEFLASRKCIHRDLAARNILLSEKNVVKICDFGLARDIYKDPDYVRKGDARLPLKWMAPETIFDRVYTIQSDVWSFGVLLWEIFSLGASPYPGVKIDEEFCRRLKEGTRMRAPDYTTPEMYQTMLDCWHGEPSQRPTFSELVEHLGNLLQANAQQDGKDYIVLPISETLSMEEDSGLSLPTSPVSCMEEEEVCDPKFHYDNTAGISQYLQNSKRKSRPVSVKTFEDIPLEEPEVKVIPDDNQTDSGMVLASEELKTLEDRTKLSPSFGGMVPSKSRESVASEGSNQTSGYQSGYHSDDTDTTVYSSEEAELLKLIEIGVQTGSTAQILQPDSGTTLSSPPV
Protocol for RET tyrosine kinase: (§1) The assay is based on the LANCE TR-FRET technology of Perkin Elmer Inc., and the assay method is as follows:
(§2) 2.5 μL of the gradient-diluted compounds were taken with a transfer pipette to a 384-well plate.
Addition of enzyme: 5 μL of 2× RET kinase solution (concentration was 0.8 nM) was taken with a transfer pipette to the corresponding reaction well of the 384-well plate, mixed well and pre-reacted at room temperature for 30 minutes.
2.5 μL 4× Ultra ULight™-JAK-1 (Tyr1023) Peptide (concentration was 200 nM)/ATP (concentration was 40 μM) mixture was taken with a transfer pipette to the corresponding reaction well of the 384-well plate.
(§3) The final concentration of DMSO in the reaction system was 4%.
(§4) The mixture was mixed well and then centrifuged and reacted at room temperature in dark for 60 min.
(§5) The 384-well plate was placed into the Envision plate reader and the signal was detected using the appropriate program.
Protocol for VEGFR2 tyrosine kinase: as §1, §2
Addition of enzyme: 5 μL of 2× VEGFR2 kinase solution (concentration was 0.5 nM) was taken with a transfer pipette to the corresponding reaction well of the 384-well plate, mixed well and pre-reacted at room temperature for 30 minutes.
2.5 μL 4× Ultra ULight™-JAK-1 (Tyr1023) Peptide (concentration was 200 nM)/ATP (concentration was 40 μMM) mixture was taken with a transfer pipette to the corresponding reaction well of the 384-well plate.
Negative control: 2.5 μL/well 4× substrate/ATP mixture and 7.5 μL 1× Kinase Assay Buffer were added to the wells of the 384-well plate.
as §3, §4, §5

Turning to `CCNC(=O)Nc1ccc(Oc2ccnc3cc(OCCCN4CCOCC4)c4c(c23)OCCO4)cc1Cl` [Example 86, 1-(2-chloro-4-((5-(3-morpholinopropoxy)-2,3-dihydro-[1,4]dioxino[2,3-f]quinolin-10-yl)oxy)phenyl)-3-ethylurea], the IC50 at VEGFR2 tyrosine kinase and on RET tyrosine kinase was under 50 nM each time.
As for `CCCNC(=O)Nc1ccc(Oc2ccnc3cc(OCCCN4CCOCC4)c4c(c23)OCCO4)cc1Cl` [Example 87, 1-(2-chloro-4-((5-(3-morpholinopropoxy)-2,3-dihydro-[1,4]dioxino[2,3-f]quinolin-10-yl)oxy)phenyl)-3-prop ylurea], the IC50 at VEGFR2 tyrosine kinase and against RET tyrosine kinase was under 50 nM throughout.
With `CC(C)NC(=O)Nc1ccc(Oc2ccnc3cc(OCCCN4CCOCC4)c4c(c23)OCCO4)cc1Cl` [Example 88, 1-(2-chloro-4-((5-(3-morpholinopropoxy)-2,3-dihydro-[1,4]dioxino[2,3-f]quinolin-10-yl)oxy)phenyl)-3-isopropylurea], the IC50 on VEGFR2 tyrosine kinase (read-out: VEGFR-2 IC50) and on RET tyrosine kinase (read-out: RET IC50) was under 50 nM throughout.
Turning to `CC(C)CNC(=O)Nc1ccc(Oc2ccnc3cc(OCCCN4CCOCC4)c4c(c23)OCCO4)cc1Cl` [Example 89, 1-(2-chloro-4-((5-(3-morpholinopropoxy)-2,3-dihydro-[1,4]dioxino[2,3-f]quinolin-10-yl)oxy)phenyl)-3-isobutylurea], the IC50 at VEGFR2 tyrosine kinase (read-out: VEGFR-2 IC50) and on RET tyrosine kinase (read-out: RET IC50) was under 50 nM throughout.
For `CCOc1cc2nccc(Oc3ccc(NC(=O)NC4CC4)c(F)c3)c2c2c1OCCO2` [Example 90, 1-cyclopropyl-3-(4-((5-ethoxy-2,3-dihydro-[1,4]dioxino[2,3-f]quinolin-10-yl)oxy)-2-fluorophenyl)urea], the IC50 on VEGFR2 tyrosine kinase (read-out: VEGFR-2 IC50) and on RET tyrosine kinase (read-out: RET IC50) was under 50 nM in each case.
On to `COCCOc1cc2nccc(Oc3ccc(NC(=O)NC4CC4)c(F)c3)c2c2c1OCCO2` [Example 91, 1-cyclopropyl-3-(2-fluoro-4-((5-(2-methoxyethoxy)-2,3-dihydro-[1,4]dioxino[2,3-f]quinolin-10-yl)oxy)phenyl)urea], for which the IC50 on VEGFR2 tyrosine kinase (read-out: VEGFR-2 IC50) and at RET tyrosine kinase (read-out: RET IC50) was under 50 nM throughout.
For `N#CCCCOc1cc2nccc(Oc3ccc(NC(=O)NC4CC4)c(Cl)c3)c2c2c1OCCO2` [Example 93, 1-(2-chloro-4-((5-(3-cyanopropoxy)-2,3-dihydro-[1,4]dioxino[2,3-f]quinolin-10-yl)oxy)phenyl)-3-cyclopropylurea], the IC50 on VEGFR2 tyrosine kinase (read-out: VEGFR-2 IC50) and at RET tyrosine kinase (read-out: RET IC50) was under 50 nM each time.
As for `N#CCCCOc1cc2nccc(Oc3ccc(NC(=O)Nc4ccc(Cl)c(C(F)(F)F)c4)cc3)c2c2c1OCCO2` [Example 94, 1-(4-chloro-3-(trifluoromethyl)phenyl)-3-(4-((5-(3-cyanopropoxy)-2,3-dihydro-[1,4]dioxino[2,3-f]quinolin-10-yl)oxy)phenyl)urea], the results for the IC50 at VEGFR2 tyrosine kinase and on RET tyrosine kinase (read-out: RET IC50) were 50 to 500 nM and under 50 nM, respectively.
With `COc1cc2nccc(Oc3ccc(NC(=O)Nc4cc(C(F)(F)F)ccc4C)cc3)c2c2c1OCCO2` [Example 95, 1-(4-((5-methoxy-2,3-dihydro-[1,4]dioxino[2,3-f]quinolin-10-yl)oxy)phenyl)-3-(2-methyl-5-(trifluoromethyl)phenyl)urea], the IC50 on VEGFR2 tyrosine kinase (read-out: VEGFR-2 IC50) and at RET tyrosine kinase (read-out: RET IC50) was under 50 nM in each case.
With `Cc1ccc(C(F)(F)F)cc1NC(=O)Nc1ccc(Oc2ccnc3cc(OCCCN4CCOCC4)c4c(c23)OCCO4)cc1` [Example 96, 1-(2-methyl-5-(trifluoromethyl)phenyl)-3-(4-((5-(3-morpholinopropoxy)-2,3-dihydro-[1,4]dioxino[2,3-f]quinolin-10-yl)oxy)phenyl)urea], the IC50 against VEGFR2 tyrosine kinase was 50 to 500 nM; at RET tyrosine kinase (read-out: RET IC50), under 50 nM.

(Values after patent publication US11479559B2, “Urea-substituted aromatic ring-linked dioxinoquinoline compounds, preparation method and uses thereof” (BEIJING SCITECH-MQ PHARMACEUTICALS LIMITED, priority 2018, dated 2022).)
